Source: the supplement of paper PMC5579334

Assays:
HS-Sch-2 = test: relative IC50 (inflection point of fitted dose-response curve, CellTiter-Glo viability, 72 h; top asymptote may be below 50% inhibition); higher = less potent
Method in brief: (§1)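 Viability of MPNST cell lines and primary human Schwann cells was read as CellTiter-Glo ATP luminescence after 72 h at 37 °C, 5% CO2, in 384-well plates seeded with 750–1000 cells per well. Each compound had been preprinted at five concentrations in 10-fold steps. Signals were scaled between vehicle and positive-control wells, duplicates averaged where present, and fitted with four-parameter logistic curves. Drug sensitivity score and relative IC50 (censored at the top concentration) come from those fits, and percent inhibition is taken at the top concentration.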

YST-1 = test: as above
Method in brief: as §1

HS-PSS = test: relative IC50 (inflection point of fitted dose-response curve, CellTox-Green cytotoxicity, 72 h; top asymptote may be below 50%); higher = less potent
Method in brief: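 MPNST cell lines and primary human Schwann cells were grown for 72 h at 37 °C in 384-well plates containing five 10-fold compound dilutions. CellTox-Green, added before seeding at a final 1:1000 dilution, gave fluorescence from DNA released by disrupted cells, and signals were scaled to vehicle and positive-control wells. Curves were fitted with a four-parameter logistic model. Drug sensitivity score and relative IC50 come from these fits, with IC50 censored at the top concentration.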

Row | SMILES | relative IC50 (HS-Sch-2) [nM] | relative IC50 (YST-1) [nM] | relative IC50 (HS-PSS) [nM]
1 | COC(=O)c1ccc2c(c1)[nH]c1ncnc(NCCCN3CCCCC3)c12 [UM729] | 3140 | 560 | > 10000
2 | CC[C@H](NC(=O)[C@H](C)NC)C(=O)N1C[C@@H](O)C[C@H]1Cc1c(-c2[nH]c3cc(F)ccc3c2C[C@@H]2C[C@H](O)CN2C(=O)[C@H](CC)NC(=O)[C@H](C)NC)[nH]c2cc(F)ccc12 [Birinapant] | > 1000 | > 1000 | > 1000
3 | CC(C)[C@@H](CS(=O)(=O)C(C)C)N1C(=O)[C@@](C)(CC(=O)O)C[C@H](c2cccc(Cl)c2)[C@H]1c1ccc(Cl)cc1 [AMG-232] | > 1000 | 190 | > 1000
4 | O=C(c1cccc(Cl)c1F)N1CCN(Cc2cccc(Nc3nccs3)n2)CC1 [MK-8745] | 623 | 231 | > 2500
5 | Cn1ncnc1[C@H]1c2n[nH]c(=O)c3cc(F)cc(c23)N[C@@H]1c1ccc(F)cc1 [Talazoparib] | 105 | 9.15 | > 1000
6 | CNc1nc(Nc2cn(C(C)(C)C#N)nc2C)ncc1C(F)(F)F [GNE-0877] | > 1000 | > 1000 | > 1000
7 | CN(C)C(=N)NC(=N)N [Metformin] | > 100000 | > 100000 | > 100000
8 | c1cc(CN2CCCNCCNCCCNCC2)ccc1CN1CCCNCCNCCCNCC1 [Plerixafor] | > 10000 | > 10000 | > 10000
9 | CS(=O)(=O)c1ccc(-c2cnc(N)c(C(=O)Nc3ccccc3)n2)cc1 [VE-821] | > 10000 | > 10000 | > 10000
10 | NC1(C(=O)N[C@@H](CCO)c2ccc(Cl)cc2)CCN(c2ncnc3[nH]ccc23)CC1 [AZD-5363] | 3470 | 2090 | > 10000
11 | C[C@@H]1CN(Cc2ccc(F)cc2)[C@@H](C)CN1C(=O)c1cc2c(C(=O)C(=O)N(C)C)cn(C)c2cc1Cl [Talmapimod] | > 10000 | 283 | > 10000
12 | NC(=O)c1cccc(-c2cccc(OC(=O)NC3CCCCC3)c2)c1 [URB597] | > 1000 | > 1000 | > 1000
13 | O=C(c1ccc(/C=C/c2n[nH]c3ccccc23)cc1)N1CCNCC1 [KW-2449] | > 2500 | 509 | > 2500
14 | CCN1CCN(Cc2ccc(Nc3ncc(F)c(-c4cc(F)c5nc(C)n(C(C)C)c5c4)n3)nc2)CC1 [Abemaciclib] | 1010 | 27.5 | > 2500
15 | CCc1nc(-c2cccc(C)c2)c(-c2ccnc(NC(=O)c3ccccc3)c2)s1 [TAK-715] | 1210 |  | > 10000
16 | O=C(Nc1cccc(C(F)(F)F)c1)Nc1cc(S(=O)(=O)NC2CC2)ccc1-c1ccsc1 [AGI-6780] | 1400 |  | > 10000
17 | COc1cccc2c1c(O)c(C(=O)N(C)c1ccc(C(F)(F)F)cc1)c(=O)n2C [Tasquinimod] | > 10000 |  | > 10000
18 | CCN1CCN(Cc2ccc(-c3cc4c(N[C@H](C)c5ccccc5)ncnc4[nH]3)cc2)CC1 [NVP-AEE788] | > 2500 |  | > 2500
19 | O=C(Nc1cc(Cl)cc2c1[nH]c1cnccc12)c1cccnc1 [PS-1145] | > 25000 |  | > 25000
